{"source": "patent US20240293379A1", "about": "“THERAPEUTIC AGENT FOR CANCER OF PATIENT WITH DECREASE IN RB1 FUNCTION USING MYT1 INHIBITOR AND CHEMOTHERAPEUTIC AGENT IN COMBINATION, AND TREATMENT METHOD THEREOF” (Chugai Seiyaku Kabushiki Kaisha, priority 2022, published 2024)", "experiment_in_all_cases": "Pemetrexed cytotoxicity test upon suppression of expression of MYT1", "format_in_all_cases": "cell-based", "key": {"NCI-H2110": {"test_system": "NCI-H2110", "conditions": "NCI-H2110 (RB1 mutant)", "protocol": "(§1) Thereafter, the plates were shaken to transfect each siRNA at a final concentration of 10 nM.\n(§2) The −Log 2 value of fold change of IC50 and the maximum value of Bliss score, which are indexes of the combination effect, were calculated by comparing with the actually obtained cell survival curve, and described in Table 6 (see Non Patent Literature 9)."}, "LU65": {"test_system": "LU65", "conditions": "LU65 (RB1 mutant)", "protocol": "as §1, §2"}, "A549": {"test_system": "A549", "conditions": "A549 (RB1 wild-type)", "protocol": "as §1, §2"}, "PC-9": {"test_system": "PC-9", "conditions": "PC-9 (RB1 wild-type)", "protocol": "as §1, §2"}, "NCI-H441": {"test_system": "NCI-H441", "conditions": "NCI-H441 (RB1 wild-type)", "protocol": "as §1, §2"}, "ABC-1": {"test_system": "ABC-1", "conditions": "ABC-1 (RB1 wild-type)", "protocol": "as §1, §2"}, "NCI-H1155": {"test_system": "NCI-H1155", "conditions": "NCI-H1155 (RB1 mutant)", "protocol": "as §1, §2"}, "NCI-H322": {"test_system": "NCI-H322", "conditions": "NCI-H322 (RB1 wild-type)", "protocol": "as §1, §2"}, "NCI-H2122": {"test_system": "NCI-H2122", "conditions": "NCI-H2122 (RB1 wild-type)", "protocol": "as §1, §2"}, "NCI-H460": {"test_system": "NCI-H460", "conditions": "NCI-H460 (RB1 wild-type)", "protocol": "as §1, §2"}, "NCI-H1993": {"test_system": "NCI-H1993", "conditions": "NCI-H1993 (RB1 wild-type)", "protocol": "as §1, §2"}, "ChaGo-K-1": {"test_system": "ChaGo-K-1", "conditions": "ChaGo-K-1 (RB1 mutant)", "protocol": "as §1, §2"}, "EKVX": {"test_system": "EKVX", "conditions": "EKVX (RB1 wild-type)", "protocol": "as §1, §2"}, "NCI-H596": {"test_system": "NCI-H596", "conditions": "NCI-H596 (RB1 mutant)", "protocol": "as §1, §2"}, "NCI-H358": {"test_system": "NCI-H358", "conditions": "NCI-H358 (RB1 wild-type)", "protocol": "as §1, §2"}, "NCI-H1666": {"test_system": "NCI-H1666", "conditions": "NCI-H1666 (RB1 wild-type)", "protocol": "as §1, §2"}, "NCI-H661": {"test_system": "NCI-H661", "conditions": "NCI-H661 (RB1 wild-type)", "protocol": "as §1, §2"}, "NCI-H292": {"test_system": "NCI-H292", "conditions": "NCI-H292 (RB1 wild-type)", "protocol": "as §1, §2"}, "HOP-62": {"test_system": "HOP-62", "conditions": "HOP-62 (RB1 wild-type)", "protocol": "as §1, §2"}, "[1]": {"conditions": "pemetrexed + MYT1 siRNA #16 10 nM"}}, "data": [{"substance": "MYT1 #16: ON-TARGETplus individual siRNA, Dharmacon product code J-005026-16, nucleotide sequence SEQ ID No: 4 (GGACCUAAGUGACAUCAAC; chemistry not fully specified)", "values": [{"measurement": "Cytotoxic activity of siRNA alone, MYT1 #16", "setting": "NCI-H2110; 10 nM, no pemetrexed", "result": 15.886, "unit": "%"}, {"measurement": "Bliss score maximum value, MYT1 #16", "setting": "NCI-H2110; [1]", "result": 24.584}, {"measurement": "HSA score maximum value, MYT1 #16", "setting": "NCI-H2110; [1]", "result": 36.712}, {"measurement": "Cytotoxic activity of siRNA alone, MYT1 #16", "setting": "LU65; 10 nM, no pemetrexed", "result": 8.109, "unit": "%"}, {"measurement": "Bliss score maximum value, MYT1 #16", "setting": "LU65; [1]", "result": 29.374}, {"measurement": "HSA score maximum value, MYT1 #16", "setting": "LU65; [1]", "result": 34.405}, {"measurement": "Cytotoxic activity of siRNA alone, MYT1 #16", "setting": "A549; 10 nM, no pemetrexed", "result": "−3.683", "unit": "%"}, {"measurement": "Bliss score maximum value, MYT1 #16", "setting": "A549; [1]", "result": 17.634}, {"measurement": "HSA score maximum value, MYT1 #16", "setting": "A549; [1]", "result": 15.047}, {"measurement": "Cytotoxic activity of siRNA alone, MYT1 #16", "setting": "PC-9; 10 nM, no pemetrexed", "result": "−5.180", "unit": "%"}, {"measurement": "Bliss score maximum value, MYT1 #16", "setting": "PC-9; [1]", "result": 35.148}, {"measurement": "Cytotoxic activity of siRNA alone, MYT1 #16", "setting": "NCI-H441; 10 nM, no pemetrexed", "result": 12.986, "unit": "%"}, {"measurement": "Bliss score maximum value, MYT1 #16", "setting": "NCI-H441; [1]", "result": 21.600}, {"measurement": "HSA score maximum value, MYT1 #16", "setting": "NCI-H441; [1]", "result": 30.794}, {"measurement": "Cytotoxic activity of siRNA alone, MYT1 #16", "setting": "ABC-1; 10 nM, no pemetrexed", "result": 3.870, "unit": "%"}, {"measurement": "Bliss score maximum value, MYT1 #16", "setting": "ABC-1; [1]", "result": 21.970}, {"measurement": "HSA score maximum value, MYT1 #16", "setting": "ABC-1; [1]", "result": 25.475}, {"measurement": "Cytotoxic activity of siRNA alone, MYT1 #16", "setting": "NCI-H1155; 10 nM, no pemetrexed", "result": 5.782, "unit": "%"}, {"measurement": "Bliss score maximum value, MYT1 #16", "setting": "NCI-H1155; [1]", "result": 77.287}, {"measurement": "HSA score maximum value, MYT1 #16", "setting": "NCI-H1155; [1]", "result": 76.586}, {"measurement": "Cytotoxic activity of siRNA alone, MYT1 #16", "setting": "NCI-H322; 10 nM, no pemetrexed", "result": "−10.363", "unit": "%"}, {"measurement": "Bliss score maximum value, MYT1 #16", "setting": "NCI-H322; [1]", "result": 24.679}, {"measurement": "Cytotoxic activity of siRNA alone, MYT1 #16", "setting": "NCI-H2122; 10 nM, no pemetrexed", "result": 11.825, "unit": "%"}, {"measurement": "Bliss score maximum value, MYT1 #16", "setting": "NCI-H2122; [1]", "result": 15.749}, {"measurement": "HSA score maximum value, MYT1 #16", "setting": "NCI-H2122; [1]", "result": 20.659}, {"measurement": "Cytotoxic activity of siRNA alone, MYT1 #16", "setting": "NCI-H460; 10 nM, no pemetrexed", "result": "−6.609", "unit": "%"}, {"measurement": "Bliss score maximum value, MYT1 #16", "setting": "NCI-H460; [1]", "result": 17.443}, {"measurement": "HSA score maximum value, MYT1 #16", "setting": "NCI-H460; [1]", "result": 9.093}, {"measurement": "Cytotoxic activity of siRNA alone, MYT1 #16", "setting": "NCI-H1993; 10 nM, no pemetrexed", "result": 35.910, "unit": "%"}, {"measurement": "Bliss score maximum value, MYT1 #16", "setting": "NCI-H1993; [1]", "result": 5.736}, {"measurement": "HSA score maximum value, MYT1 #16", "setting": "NCI-H1993; [1]", "result": 21.843}, {"measurement": "Cytotoxic activity of siRNA alone, MYT1 #16", "setting": "ChaGo-K-1; 10 nM, no pemetrexed", "result": "−1.049", "unit": "%"}, {"measurement": "Bliss score maximum value, MYT1 #16", "setting": "ChaGo-K-1; [1]", "result": 40.066}, {"measurement": "HSA score maximum value, MYT1 #16", "setting": "ChaGo-K-1; [1]", "result": 39.075}, {"measurement": "Cytotoxic activity of siRNA alone, MYT1 #16", "setting": "EKVX; 10 nM, no pemetrexed", "result": "−1.125", "unit": "%"}, {"measurement": "Bliss score maximum value, MYT1 #16", "setting": "EKVX; [1]", "result": 16.454}, {"measurement": "HSA score maximum value, MYT1 #16", "setting": "EKVX; [1]", "result": 15.771}, {"measurement": "Cytotoxic activity of siRNA alone, MYT1 #16", "setting": "NCI-H596; 10 nM, no pemetrexed", "result": 13.549, "unit": "%"}, {"measurement": "Bliss score maximum value, MYT1 #16", "setting": "NCI-H596; [1]", "result": 56.598}, {"measurement": "HSA score maximum value, MYT1 #16", "setting": "NCI-H596; [1]", "result": 67.277}, {"measurement": "Cytotoxic activity of siRNA alone, MYT1 #16", "setting": "NCI-H358; 10 nM, no pemetrexed", "result": 0.021, "unit": "%"}, {"measurement": "Bliss score maximum value, MYT1 #16", "setting": "NCI-H358; [1]", "result": 12.322}, {"measurement": "HSA score maximum value, MYT1 #16", "setting": "NCI-H358; [1]", "result": 12.336}, {"measurement": "Cytotoxic activity of siRNA alone, MYT1 #16", "setting": "NCI-H1666; 10 nM, no pemetrexed", "result": "−4.467", "unit": "%"}, {"measurement": "Bliss score maximum value, MYT1 #16", "setting": "NCI-H1666; [1]", "result": 8.127}, {"measurement": "HSA score maximum value, MYT1 #16", "setting": "NCI-H1666; [1]", "result": 5.753}, {"measurement": "Cytotoxic activity of siRNA alone, MYT1 #16", "setting": "NCI-H661; 10 nM, no pemetrexed", "result": 20.313, "unit": "%"}, {"measurement": "Bliss score maximum value, MYT1 #16", "setting": "NCI-H661; [1]", "result": 8.081}, {"measurement": "HSA score maximum value, MYT1 #16", "setting": "NCI-H661; [1]", "result": 22.502}, {"measurement": "Cytotoxic activity of siRNA alone, MYT1 #16", "setting": "NCI-H292; 10 nM, no pemetrexed", "result": 19.878, "unit": "%"}, {"measurement": "Bliss score maximum value, MYT1 #16", "setting": "NCI-H292; [1]", "result": 19.031}, {"measurement": "HSA score maximum value, MYT1 #16", "setting": "NCI-H292; [1]", "result": 21.907}, {"measurement": "Cytotoxic activity of siRNA alone, MYT1 #16", "setting": "HOP-62; 10 nM, no pemetrexed", "result": 8.347, "unit": "%"}, {"measurement": "Bliss score maximum value, MYT1 #16", "setting": "HOP-62; [1]", "result": 20.165}, {"measurement": "HSA score maximum value, MYT1 #16", "setting": "HOP-62; [1]", "result": 24.453}]}]}
